Results as given in patent US20240116850A1, “COMPOSITIONS AND METHODS RELATED TO BICYCLO[2.2.1] HEPTANAMINE-CONTAINING COMPOUNDS” (The Broad Institute, Inc., priority 2020, published 2024).
Entries after “also recorded” stand apart in the source; their conditions may differ.

What was measured:
[1] = Dynamic Vapor Sorption (DVS) hygroscopicity; format: physicochemical; details: for hygroscopicity classification: DVS; for DVS (matrix of results from solid form characterization): summary grade Good/Moderate/Poor
Experimental: Dynamic Vapor Sorption (DVS) was measured via a SMS (Surface Measurement Systems) DVS Intrinsic. The relative humidity at 25° C. were calibrated against the deliquescence point of LiCl, Mg(NO3)2 and KCl.

[2] = Physical and chemical stability on storage (LC-MS and XRPD); format: physicochemical; details: for decomposition or solid form change in stability assay / Stability (matrix of results from solid form characterization): 1 week stability assay; for Solid Form after storage (XRPD) / Stability: 25/60% RH; 40 C./75% RH; 1 week / Form change?: 1 week; for Stability: 25/60% RH; 40 C./75% RH; 1 week / Form change?: BRD4780 salt solid form, 25/60% RH and 40 C./75% RH; for Stability: 25/60% RH; 40 C./75% RH; 1 week: impurities estimated by LCMS by observation of the TIC; for Form change?: solid form change (XRPD); for Stability (matrix of results from solid form characterization): summary grade Good/Moderate/Poor
Experimental: To compare the physical/chemical stability of the salt candidates, approximate 10 mg of each solid sample was added to a 5-mL glass vial covered with Parafilm® with several pin-holes on it, and then stored under 25° C./60% RH and 40° C./75% RH. After one week storage, solids were taken out for LC-MS and XRPD test to evaluate physical and chemical stability.

[3] = TGA and DSC thermal characterization of salts; format: physicochemical; details: summary grade Good/Moderate/Poor
Experimental: TGA data were collected using a TA Discovery5500/Q5000 TGA from TA Instruments. DSC was performed using a TA Discovery2500/Q2000 DSC from TA Instruments.

[4] = Physical and chemical stability on storage (LC-MS and XRPD); format: physicochemical
[5] = Equilibrium solubility in water and bio-relevant media (SGF, FaSSIF, FeSSIF); details: for Solubility (matrix of results from solid form characterization): summary grade Good/Moderate/Poor; for solubility: thermodynamic from solid
physchem = details: thermodynamic from solid
[6] = Fasted State Simulated Intestinal Fluid (pH 6.5)
[7] = Fed State Simulated Intestinal Fluid (pH 5.0)
[8] = Simulated gastric fluid (pH 1.8)
[9] = water, HCl salt tested at 100 mg/mL, other salts at 50 mg/mL
[10] = water, H2O solubility (mM; salt)

Row | SMILES | DVS (% H2O uptake at 25 C./80% RH) ([1]; 80% RH) [%] | DVS (% H2O uptake at 25 C./95% RH) [1] [%] | hygroscopicity classification [1] | DVS (matrix of results from solid form characterization) [1] | decomposition or solid form change in stability assay [2] | Solid Form after storage (XRPD) ([2]; 25° C./60% RH) | Solid Form after storage (XRPD) ([2]; 40° C./75% RH) | Stability: 25/60% RH; 40 C./75% RH; 1 week [2] | Form change? [2] | Stability (matrix of results from solid form characterization) [2] | TGA/DSC (matrix of results from solid form characterization) [3] | FaSSIF solubility [5, 6] [mg/mL] | FeSSIF solubility [5, 7] [mg/mL] | SGF solubility [5, 8] [mg/mL] | pH ([5]; final solution in FaSSIF) | pH ([5]; final solution in FeSSIF) | pH ([5]; final solution in H2O) | pH ([5]; final solution in SGF) | Solubility (matrix of results from solid form characterization) [5] | H2O solubility (mM; salt) ([5]; water) [mM] | further results
1 | CC(C)C1C2CCC(C2)C1N.Cl (racemic) [HCl salt Type A, rac-3-exo-isopropylbicyclo[2.2.1]heptan-2-endo-amine hydrochloride, reference compound] | 0.55 | 3.3 | slightly hygroscopic | Moderate | did not display decomposition or solid form change | HCl salt Type A | HCl salt Type A | No significant impurities | No change | Good | Good | >71 | >75 | >77 | 6.0 | 4.8 | 4.5 | 1.8 | Good | >405.84 | H2O absorption ([1]; 80% RH): 0.55 wt %; H2O absorption ([1]; 90% RH): 3.3 wt %; new peak on LC-MS chromatogram after storage ([4]; 60° C. for 24 h): a new peak was observed; Solid Form after storage (XRPD) ([4]; 60° C., 24 h): HCl salt Type A; H2O solubility (mg/mL; salt) [5, 9]: >77 mg/mL
2 | CC(C)[C@@H]1[C@H]2CC[C@H](C2)[C@H]1N [L-malate Type C] | 0.18 | 0.30 | not hygroscopic | Good | form change observed | L-malate Type C | partly converted to L-malate Type B; also recorded: L-malate Type B + C | No significant impurities | Type B observed | Poor | Poor | >30 | >32 | >33 | 6.4 | 5.2 | 7.1 | 5.3 | Good | >136.17 | H2O solubility (mg/mL; salt) [5, 9]: >39 mg/mL
3 | CC(C)[C@@H]1[C@H]2CC[C@H](C2)[C@H]1N.O=C(O)/C=C\C(=O)O [Maleate Type A] | 0.02 | 0.07 | not hygroscopic | Good | did not display decomposition or solid form change | Maleate Type A | Maleate Type A | No significant impurities | No change | Good | Good |  |  |  | 4.6 | 4.7 | 3.8 | 4.9 | Good |  | solubility ([5]; fasted state simulated intestinal fluid (FaSSIF), pH 6.5, fassif, FaSSIF solubility, Fasted State Simulated Intestinal Fluid (pH 6.5)): > 27 mg/mL; solubility ([5]; fed state simulated intestinal fluid (FeSSIF), pH 5, fessif, FeSSIF solubility, Fed State Simulated Intestinal Fluid (pH 5.0)): > 26 mg/mL; solubility ([5]; simulated gastric fluid (SGF), pH 1.8, simulated gastric fluid, SGF solubility, Simulated gastric fluid (pH 1.8)): > 28 mg/mL; solubility [5, 10]: > 92.8 mM; solubility ([5]; water, H2O solubility (mg/mL; salt), HCl salt tested at 100 mg/mL, other salts at 50 mg/mL): > 25 mg/mL
4 | CC(C)[C@@H]1[C@H]2CC[C@H](C2)[C@H]1N.O=C(O)CCC(=O)O [Succinate Type A] | 0.08 | 0.67 | not hygroscopic | Good | new peaks observed | Succinate Type A + peaks | Succinate Type A | No significant impurities | New Peaks | Moderate | Good |  |  |  | 4.5 | 4.6 | 4.5 | 4.4 |  |  | Solid Form after storage (XRPD) ([2]; 25° C./60% RH, listed as succinate Type A): new peaks were observed; solubility (physchem; pH 1.8, simulated gastric fluid, SGF solubility): > 28 mg/mL; solubility (physchem; pH 6.5, fassif, FaSSIF solubility): > 28 mg/mL; solubility (physchem; [10]): > 103 mM; solubility (physchem; water, H2O solubility (mg/mL; salt)): > 28 mg/mL
